# According to ChEMBL document CHEMBL5223150, “Targeting the PI3K/AKT/mTOR Signaling Pathway in the Treatment of Human Diseases: Current Status, Trends, and Solutions” (J Med Chem, 2022):
# Test: Metabolic stability in human liver microsomes assessed as compound remaining after 1 hr
# Format: ADME, Microsome
# Conditions: read-out: Stability
smiles,measurement,value
O=C(N1CCN(c2ncnc3[nH]nc(Cl)c23)CC1)C1(c2ccc(Cl)c(Cl)c2)CCNCC1,remaining at 1 h,80%
